Experimental data from US20250109165A1, “CYCLOPHILIN INHIBITORS AND USES THEREOF” (The Broad Institute, Inc., priority 2022, published 2025).
pIC50, pKi: −log10 of the molar value. Values joined by “and” are separate entries in the source; they are usually repeats but may differ in a detail not shown here. Equal entries are not always repeated.

Assays:
[1] = molecular target: T1, CypE (Homo sapiens, UniProt Q9UNP9); experiment: Assessment of covalent modification by mass spectrometry; details: after treatment with NaCNBH3
T1 construct: PPIE (UniProtKB Entry Q9UNP9: res 131-301); host or cells: E. coli BL21(DE3)
Method: Assessment of covalent modification of CypE and other cyclophilin proteins: Into PCR strip, CypE or other cyclophilin in assay buffer (25 mM HEPES pH 8.0, 100 mM NaCl, 0.01% Triton X-100) was incubated with compound for 1 hour at room temperature. Final concentrations were 20 μM CypE, 100 μM compound, 0.5% DMSO, at a final volume of 20 μL. For analysis of lysine-iminoboronate modification, samples were directly submitted to Harvard's Center for Mass Spectroscopy for LC-MS analysis. For amine-lysine modification, samples were treated with 5 μL of 125 mM sodium cyanoborohydride dissolved in 25 mM Ammonium bicarbonate solution (pH 8.0) and incubated for 4 hours at room temperature. For all other wild-type cyclophilins, protein was treated for 4 hours with C3A, followed by 16 hour treatment with NaCNBH3. Final [NaCNBH3]=25 mM. Samples were then submitted for LC-MS as described above.

[2] = molecular target: T1, CypE; experiment: Competition anisotropy (fluorescence polarization) binding assay with A26-Fl
Method: (§1) Competition anisotropy binding assay with A26-Fl: Adapted from previous work^54, into a flat-bottom black untreated 96 well plate (Corning), cyclophilin in assay buffer (25 mM HEPES pH 8.0, 100 mM NaCl, 0.01% Triton X-100) at a predetermined concentration from FIG. 27 was incubated with 0.5 nM A26-Fl for 10 minutes at room temperature. Competitor macrocycle was then added to each well and incubated for 24 hours. Final assay volume was 100 μL with 0.25% DMSO. Fluorescence anisotropy was then measured using a Tecan Spark® plate reader using 492 nm/523 nm excitation/emission settings. Raw fluorescence polarization data was normalized to protein+fluorescent probe and buffer+fluorescent probe and Ki values were calculated using one site-competitive binding equation with Prism 9, importing Kd values from A26-Fl (FIGS. 12A-12C).

[3] = molecular target: T2, CypE K217A (Homo sapiens, UniProt Q9UNP9, K217A); experiment: as above
T2 construct: Lane 5-GS-CypE K217A (131-301); His6 tag (N, cleaved yes); made in house; host or cells: E. coli BL21(DE3)
Method: as §1

[4] = molecular target: T1, CypE; experiment: Chymotrypsin coupled prolyl-isomerase assay; assay type: biochemical
Method: (§2) IC50 values were calculated to be the value at which 50% inhibition was achieved on each compound's non-linear regression fitted curve.

[5] = molecular target: T2, CypE K217A; experiment: Chymotrypsin coupled prolyl-isomerase assay; assay type: biochemical
Method: as §2

[6] = test system: cyclophilins; experiment: Prolyl-isomerase inhibition screen on cyclophilins and cyclophilin mutants; assay type: biochemical, human
Method: as §2

[7] = test system: CypD; experiment: Chymotrypsin coupled prolyl-isomerase assay; assay type: biochemical, human; details: CypD versus wild-type CypA
Method: as §2

[8] = molecular target: T3, CypD K118E (Homo sapiens, UniProt P30405, K118E); experiment: Chymotrypsin coupled prolyl-isomerase assay; assay type: biochemical; details: CypD K118E mutant; read-out: IC50^CypDK118E
T3 construct: made in house; host or cells: E. coli BL21(DE3)
Method: as §2

[9] = molecular target: T4, CypA (Homo sapiens, UniProt P62937); experiment: Chymotrypsin coupled prolyl-isomerase assay; assay type: biochemical; details: wild-type CypA
T4 construct: PPIA (UniProtKB Entry P62937: res 1-165); made in house; host or cells: E. coli BL21(DE3)
Method: as §2

[10] = molecular target: T5, CypD K118A (Homo sapiens, UniProt P30405, K118A); experiment: Chymotrypsin coupled prolyl-isomerase assay; assay type: biochemical; details: CypD K118A mutant; read-out: IC50^CypDK118A
T5 construct: made in house; host or cells: E. coli BL21(DE3)
Method: as §2

[11] = molecular target: T6, CypB (Homo sapiens, UniProt P23284); experiment: Chymotrypsin coupled prolyl-isomerase assay; assay type: biochemical; details: wild-type CypB
T6 construct: PPIB (UniProtKB Entry P23284: res 34-216); His6 tag with TEV site (seen as […]- and […]- forms) (N); made in house; host or cells: E. coli BL21(DE3)
Method: as §2

[12] = molecular target: T7, CypD (Homo sapiens, UniProt P30405); experiment: Chymotrypsin coupled prolyl-isomerase assay; assay type: biochemical
T7 construct: PPIF (UniProtKB Entry P30405: res 45-207); made in house; host or cells: E. coli BL21(DE3)
Method: as §2

[13] = molecular target: T8, CypD S123E (Homo sapiens, UniProt P30405, S123E); experiment: Chymotrypsin coupled prolyl-isomerase assay; assay type: biochemical; details: CypD S123E gatekeeper mutant; read-out: IC50^CypDS123E
T8 construct: made in house; host or cells: E. coli BL21(DE3)
Method: as §2

[14] = molecular target: T9, CypA E81S/K82R (Homo sapiens, UniProt P62937, E81S/K82R); experiment: Chymotrypsin coupled prolyl-isomerase assay; assay type: biochemical; details: CypA E81S/K82R gatekeeper mutant; read-out: IC50^CypAE81S/K82R
T9 construct: Lane 12-SNA-CypA E81S/K82R (1-165); His6 tag (N, cleaved yes); made in house; host or cells: E. coli BL21(DE3)
Method: as §2

[15] = molecular target: T10, CypB E121S (Homo sapiens, UniProt P23284, E121S); experiment: Chymotrypsin coupled prolyl-isomerase assay; assay type: biochemical; details: CypB E121S gatekeeper mutant; read-out: IC50^CypBE121S
T10 construct: Lane 14-SNA-CypB E121S (34-216); His6 tag (N, cleaved yes); made in house; host or cells: E. coli BL21(DE3)
Method: as §2

[16] = molecular target: T11, human carboxylesterase (CES1) (Homo sapiens, UniProt P23141); experiment: In vitro esterase activity on ester pro-drug Cy5 derivatives; assay type: in vitro ADME; details: 0.25 μM CES1, 37° C., 8 hours
T11 sequence (P23141 18-567): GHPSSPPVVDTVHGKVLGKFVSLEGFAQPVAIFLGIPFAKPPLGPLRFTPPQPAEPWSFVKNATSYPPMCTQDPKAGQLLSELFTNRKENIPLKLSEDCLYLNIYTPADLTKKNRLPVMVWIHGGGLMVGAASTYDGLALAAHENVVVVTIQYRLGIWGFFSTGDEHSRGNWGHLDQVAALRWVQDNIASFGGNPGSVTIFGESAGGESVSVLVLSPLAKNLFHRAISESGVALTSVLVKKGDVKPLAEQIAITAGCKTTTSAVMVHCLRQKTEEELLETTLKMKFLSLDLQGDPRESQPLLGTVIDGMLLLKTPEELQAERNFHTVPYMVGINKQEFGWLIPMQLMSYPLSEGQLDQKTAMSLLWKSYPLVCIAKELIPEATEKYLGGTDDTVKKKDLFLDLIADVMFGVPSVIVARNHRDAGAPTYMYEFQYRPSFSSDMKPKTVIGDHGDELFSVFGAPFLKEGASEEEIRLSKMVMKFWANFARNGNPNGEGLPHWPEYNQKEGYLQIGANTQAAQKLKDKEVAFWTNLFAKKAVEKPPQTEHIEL
Method: In vitro esterase activity on ester pro-drug Cy5 derivatives of CypD inhibitors. Into PCR tubes, ester compound (6 μM) and either buffer only, CES1 (0.25 μM), or CES2 (0.25 μM) was diluted in 100 mM Tris-HCl buffer, pH 7.4, with a final DMSO concentration of 1%. Samples were maintained on a PCR block at 37° C. for 8 hours. After incubation, samples were diluted with 20 μL acetonitrile and analyzed by LC-MS at Harvard's Center for Mass Spectroscopy. Di-ester, mono-ester, and di-acid abundances were quantified by total ion count of the primary isotope, and the three compounds were summed and each one expressed as a fraction of the total sum.

[17] = test system: HeLa cells; experiment: Fluorescence microscopy on HeLa cells; assay type: cell-based, human; details: Cy5 labeled compound 6 μM
Method: Fluorescence microscopy on Hela cells. Into 96 well black, clear bottom TC treated plates, cells were seeded in Dulbecco's Modified Eagle Medium (DMEM) supplemented with 10% fetal bovine serum 24 hours prior at a density where wells were ˜80% confluent at time of experiment. Media was removed and cells were then stained with 50 μL of mixture containing Cy5 labeled compound (6 μM) in Kreb's ringer solution HEPES buffered pH 7.2 (KRB), for 1 hour at 37° C. Then, 50 μL Hoechst 33342 (8 μM) and Mitotracker Green FM (0.1 μM) in KRB was added directly to wells containing cells and incubated for 15 minutes at 37° C. Media was removed and cells were washed two times with 100 μL KRB. Cells were then kept adherent to the wells in 100 μL KRB for imaging. Fluorescence microscopy was conducted on an Opera Phenix Plus High-Content Screening System, using Alexa 488, Alexa 647, and Hoescht 33342 channels. Images were analyzed using Harmony 4.9.

T1 sequence (Q9UNP9 131-301): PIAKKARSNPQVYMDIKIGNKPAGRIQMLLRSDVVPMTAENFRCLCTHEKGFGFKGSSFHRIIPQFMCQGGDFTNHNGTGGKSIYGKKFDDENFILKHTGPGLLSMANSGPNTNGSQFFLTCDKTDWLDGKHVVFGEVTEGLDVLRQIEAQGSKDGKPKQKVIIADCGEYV
T2 sequence (Q9UNP9 131-301 K217A): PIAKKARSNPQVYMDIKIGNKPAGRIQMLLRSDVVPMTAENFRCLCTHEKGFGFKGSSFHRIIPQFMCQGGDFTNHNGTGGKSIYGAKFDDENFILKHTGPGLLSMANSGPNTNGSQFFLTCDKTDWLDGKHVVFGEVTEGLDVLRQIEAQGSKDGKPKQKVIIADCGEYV
T7 sequence (P30405 45-207): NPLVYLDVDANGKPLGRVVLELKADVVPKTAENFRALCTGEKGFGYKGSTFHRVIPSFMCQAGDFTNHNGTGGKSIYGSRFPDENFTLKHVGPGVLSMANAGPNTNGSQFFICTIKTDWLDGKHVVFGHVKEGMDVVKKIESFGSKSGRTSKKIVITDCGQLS
T4 sequence (P62937 whole entry): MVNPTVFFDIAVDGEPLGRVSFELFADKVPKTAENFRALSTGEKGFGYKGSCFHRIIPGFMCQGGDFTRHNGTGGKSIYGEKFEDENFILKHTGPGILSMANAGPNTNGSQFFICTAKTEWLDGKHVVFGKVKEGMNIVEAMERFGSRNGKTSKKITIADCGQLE
T9 sequence (P62937 whole entry E81S/K82R): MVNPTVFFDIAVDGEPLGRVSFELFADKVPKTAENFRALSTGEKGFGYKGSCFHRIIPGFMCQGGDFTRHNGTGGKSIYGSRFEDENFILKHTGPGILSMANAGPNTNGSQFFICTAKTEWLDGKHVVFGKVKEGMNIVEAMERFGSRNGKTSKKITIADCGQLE
T6 sequence (P23284 34-216): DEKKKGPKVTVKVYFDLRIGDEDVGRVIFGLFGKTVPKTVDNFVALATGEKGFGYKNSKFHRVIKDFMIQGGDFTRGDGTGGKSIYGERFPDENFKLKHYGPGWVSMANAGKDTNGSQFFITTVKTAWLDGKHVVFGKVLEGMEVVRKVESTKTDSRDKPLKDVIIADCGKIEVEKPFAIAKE
T3 sequence (P30405 45-207 K118E): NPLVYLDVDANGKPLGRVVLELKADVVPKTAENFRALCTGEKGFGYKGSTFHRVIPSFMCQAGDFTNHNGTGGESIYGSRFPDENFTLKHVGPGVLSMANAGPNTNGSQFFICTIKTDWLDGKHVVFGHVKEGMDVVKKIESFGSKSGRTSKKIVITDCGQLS
T10 sequence (P23284 34-216 E121S): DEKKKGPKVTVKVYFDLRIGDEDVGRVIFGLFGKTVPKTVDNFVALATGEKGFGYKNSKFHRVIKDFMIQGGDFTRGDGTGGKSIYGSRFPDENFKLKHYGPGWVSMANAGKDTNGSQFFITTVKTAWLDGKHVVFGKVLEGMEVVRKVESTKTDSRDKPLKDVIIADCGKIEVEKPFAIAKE
T5 sequence (P30405 45-207 K118A): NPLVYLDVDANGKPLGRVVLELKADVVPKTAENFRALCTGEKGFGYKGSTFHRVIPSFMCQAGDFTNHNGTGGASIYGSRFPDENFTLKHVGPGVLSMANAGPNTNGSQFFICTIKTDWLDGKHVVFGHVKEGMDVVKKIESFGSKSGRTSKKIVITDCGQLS
T8 sequence (P30405 45-207 S123E): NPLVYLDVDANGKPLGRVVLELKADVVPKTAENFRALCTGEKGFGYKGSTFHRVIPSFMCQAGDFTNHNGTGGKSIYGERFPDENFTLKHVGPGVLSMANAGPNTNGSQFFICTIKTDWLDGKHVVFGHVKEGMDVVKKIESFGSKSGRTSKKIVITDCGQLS

SMILES: NC(=O)[C@@H]1CCNC(=O)/C=C/C(=O)N2CCC[C@](Cc3ccccc3)(C2)C(=O)N[C@@H](Cc2ccc(-c3ccc(C=O)c(B(O)O)c3)cc2)C(=O)NCc2ccccc2CC(=O)N1 [Compound C3A]
- mass shift of covalent adduct with CypE [1]: 806 Da and 779 Da and 807 Da
- pKi ([2]; 0.5 nM A26-Fl, wild-type CypE, read-out: Ki, inhibition of A26-Fl binding to CypE): 7.14
- more potency for CypE than for other tested cyclophilins ([2]; FP competition with A26-Fl, lysine-containing cyclophilins): > 10 fold
- CypE binding in FP competition (in words) ([2]; compared to C3A): selectivity for CypE
- less potent at competing A26-Fl off of CypE K217A compared to wild-type CypE [3]: 40 fold
- pKi ([3]; 0.5 nM A26-Fl, CypE K217A, read-out: K^CypEK217Ai): 5.51
- binding to CypE K217A compared to wild-type (in words) ([3]; FP competition with 0.5 nM A26-Fl): significantly attenuated binding
- CypE potency and selectivity in prolyl isomerase assay (in words) [4]: good selectivity and potency for CypE
- IC50 more potent for CypE than for the other ten cyclophilins screened [4]: 30-750 fold
- higher CypE inhibition potency of C3A over C5A [4]: 75 fold
- selectivity for CypE over CypA [4]: > 100 fold
- pIC50 ([4]; wild-type CypE, read-out: IC50 against CypE prolyl isomerase activity): 7.89
- inhibition of CypE K217A compared to wild-type (in words) [5]: Loss of C3A inhibition potency
- less potent at inhibiting K217A prolyl isomerase activity compared to wild-type CypE [5]: 150 fold
- pIC50 ([5]; CypE K217A mutant, read-out: IC^CypEK217A50): 5.70

SMILES: NCCOCCNC(=O)[C@@H]1CCNC(=O)/C=C/C(=O)N2CCC[C@](Cc3ccccc3)(C2)C(=O)N[C@@H](Cc2ccc(-c3ccc(CC(C(=O)O)C(=O)O)cc3)cc2)C(=O)NCc2ccccc2CC(=O)N1 [Compound B52]
- cyclophilin selectivity profile (in words) [6]: high potency and selectivity for CypD
- potency on cyclophilin mutants compared to wild-type (in words) ([6]; mutants as named at the place): little to no ablation of potency
- selectivity for CypD over CypA [7]: 100 fold
- pIC50 [8]: 6.52
- pIC50 [9]: 5.96
- pIC50 [10]: 7.14
- pIC50 [11]: 6.68
- pIC50 ([12]; wild-type CypD): 8.00
- pIC50 [13]: 6.62
- pIC50 [14]: 7.57
- pIC50 [15]: 8.10

SMILES: CCOC(=O)CC(CC(=O)OCC)c1ccc(-c2ccc(C[C@H]3NC(=O)[C@@]4(Cc5ccccc5)CCCN(C4)C(=O)/C=C/C(=O)NCC[C@H](C(=O)NCCNC(=O)CCCCCN4\C(=C/C=C/C=C/C5=[N+](C)c6ccccc6C5(C)C)C(C)(C)c5ccccc54)NC(=O)Cc4ccccc4CNC3=O)cc2)cc1 [*B53-Et-Cy5]
- hydrolysis of ester prodrug by CES1 [16]: hydrolyzed to their active dicarboxylate forms
- mitochondrial localization (overlap with Mitotracker Green) [17]: good mitochondrial localization
- plasma membrane / mammalian cell permeability [17]: Strong mammalian cell permeability and mitochondrial localization
- CypD prolyl-isomerase inhibition (in words) [12]: did not potently inhibit
